Experimental data from patent US8415296B2, “Oxyntomodulin peptide analogue” (Eli Lilly and Company, priority 2009, dated 2013).
Marks after values point to notes of the source that are not given here.

Tests used:
Type in all cases: in vivo
[1] = Food intake, body weight and body composition in diet-induced obese (DIO) mice; conditions: for reduction of cumulative food intake compared to the vehicle group: end of 2-week study; for Fat mass loss (g fat weight change for 14 days) / Overall weight loss (g weight change for 14 days) / Total food intake (g total for 14 days): mean ± SEM
Experimental: Three to four months old male diet-induced obese (DIO) mice are individually housed in a temperature-controlled (24° C.) facility with a 12 hour light/dark cycle (lights on 22:00), and have free access to food and water. After 2 weeks acclimation to the facility, mice are randomized to treatment groups (n=8-10/group), each group having similar mean body weight and fat mass. Mice are subcutaneously (sc) injected with vehicle solution and weighed for 2 days to acclimate them to the procedures.
Body weight and the weight of food plus the hopper are measured at the same time. Food consumed in the preceeding 24 hours is calculated by subtracting current weight of food plus the hopper from that of the previous day. Absolute changes in body weight are calculated by subtracting the body weight of the animal prior to the first injection. On days 1 and 14 total fat mass is measured by nuclear magnetic resonance (NMR) using an Echo Medical System (Houston, Tex.) instrument. Fat free mass is calculated by subtracting fat mass from total body weight.

[2] = Oral glucose tolerance test after 2-week treatment in DIO mice; conditions: for Glucose AUC, MEAN: oral glucose load 2 g/kg, 0 to 120 min
Experimental: (§1) Fifty-six hours after the fifth injection as described in Example 7 in DIO mice, mice are fasted for 16 hours prior to the start of the glucose tolerance test. At time 0, animals are given 2 g/kg dextrose by oral gavage (Table 3, Study 1) or intraperitoneal (IP) injection (Table 4, Study 2). Blood is collected by tail vein bleeding at 0, 15, 30, 60 and 120 minutes after glucose challenge. Glucose concentration is measured by glucometer.

[3] = Intraperitoneal glucose tolerance test after 2-week treatment in DIO mice; conditions: ip glucose load 2 g/kg, 0 to 120 min
Experimental: as §1

[4] = Intraperitoneal glucose tolerance test in lean mice; conditions: IPGTT; for Glucose AUC, MEAN: 0 to 30 min; for Insulin AUC, MEAN: plasma insulin 0 to 30 min
Experimental: Nine week old male C57BL/6 mice are used in the study Animals are randomized into groups based on fed body weight. […] Food is removed at the time of injection of peptide or vehicle. At time 0, animals are given 2 g/kg dextrose by IP injection. Blood is collected by tail vein bleeding at 0, 3, 6, 12 and 30 minutes after glucose challenge. Glucose concentration is measured by glucometer. Insulin is measure by Mesoscale.

[5] = Oral glucose tolerance test in ob/ob mice; conditions: for Glucose AUC, MEAN: OGTT, 0 to 120 min
Experimental: (§2) Two to three months old male ob/ob mice are individually housed in a temperature-controlled (24° C.) facility with a 12 hour light/dark cycle (lights on 2200 hours), and have free access to food and water. After at least 2 weeks of acclimation to the facility, 3-hours fasting blood glucose is measured by tail vein bleeding at 9 AM. Mice with blood glucose under 180 mg/dL are not used. Remaining animals are randomized to treatment groups (N=7/group), each group having similar average blood glucose level. The mice are given access to food until the time of injection. […] Food is removed at the time of injection. An OGTT (Table 7) or IPGTT (Table 8) is performed 16 hours after the peptide injection. At time 0, animals are given 2 g/kg dextrose by oral gavage (Table 7) or intraperitoneal injection (Table 8). Blood is collected by tail vein bleeding at 0, 15, 30, 60 and 120 minutes after glucose challenge. Blood glucose concentration is measured by glucometer.

[6] = Intraperitoneal glucose tolerance test in ob/ob mice; conditions: IPGTT, 0 to 120 min, 7.5 nmole/kg 16 hours before
Experimental: as §2

[7] = Study 1, DIO mice, 7.5 nmole/kg sc every 3 days
[8] = Study 1, DIO mice, 15 nmole/kg sc every 3 days
[9] = Study 1, DIO mice, 30 nmole/kg sc every 3 days
[10] = Study 2, DIO mice, 7.5 nmole/kg sc every 3 days
[11] = Study 2, DIO mice, 22.5 nmole/kg sc every 3 days

His-(D-Ser)-Gln-Gly-Thr-Phe-Thr-Ser-Asp-(1-Nal)-Ser-Lys-Tyr-Leu-Asp-Glu-Lys-Ala-Ala-Gln-Glu-Phe-Val-Gln-Trp-Leu-Leu-Asn-(Aib)-Ala-Arg-Asn-Arg-Asn-Asn-Ile-Ala-Cys(20 kDa PEG)-Cys(20 kDa PEG)
cumulative weight loss compared to the vehicle group ([1]; Study 1, 7.5 nmole/kg every 3 days, 2 weeks): about 6%
vehicle controlled cumulative weight loss ([1]; Study 1, 15 nmole/kg every 3 days, 2 weeks): 10%
reduction of cumulative food intake compared to the vehicle group ([1]; Study 1, 15 nmole/kg): 21%
vehicle controlled cumulative weight loss ([1]; Study 1, 30 nmole/kg every 3 days, 2 weeks): 15%
reduction of cumulative food intake compared to the vehicle group ([1]; Study 1, 30 nmole/kg): 27%
Fat mass loss (g fat weight change for 14 days) [1, 7]: -1.1 ± 0.3 g
Overall weight loss (g weight change for 14 days) [1, 7]: -1.7 ± 0.3 g
Total food intake (g total for 14 days) [1, 7]: 36.5 ± 1.2 g
Fat mass loss (g fat weight change for 14 days) [1, 8]: -2.7 ± 0.2 g
Overall weight loss (g weight change for 14 days) [1, 8]: -3.5 ± 0.3 g
Total food intake (g total for 14 days) [1, 8]: 31.4 ± 0.9 g
Fat mass loss (g fat weight change for 14 days) [1, 9]: -4.0 ± 0.3 g
Overall weight loss (g weight change for 14 days) [1, 9]: -5.6 ± 0.4 g
Total food intake (g total for 14 days) [1, 9]: 29.0 ± 1.3 g
Fat mass loss (g fat weight change for 14 days) [1, 10]: -1.6 ± 0.2 g
Overall weight loss (g weight change for 14 days) [1, 10]: -2.5 ± 0.3 g
Total food intake (g total for 14 days) [1, 10]: 33.3 ± 0.6 g
Fat mass loss (g fat weight change for 14 days) [1, 11]: -3.8 ± 0.2 g
Overall weight loss (g weight change for 14 days) [1, 11]: -5.2 ± 0.2 g
Total food intake (g total for 14 days) [1, 11]: 28.7 ± 0.6 g
decrease of body weight ([1]; Study 2, high dose (22.5 nmole/kg) every 3 days, 2 weeks): ~10%
decrease of body weight ([1]; Study 2, low dose (7.5 nmole/kg) every 3 days, 2 weeks): about 5%
blood glucose at all time points before and after the oral glucose challenge vs vehicle ([2]; all doses): significantly lowered
Glucose AUC, MEAN ([2]; 7.5 nmole/kg): 13802* mg*min/dL
Glucose AUC, MEAN ([2]; 15 nmole/kg): 12668* mg*min/dL
Glucose AUC, MEAN ([2]; 30 nmole/kg): 13056* mg*min/dL
Glucose AUC, MEAN ([3]; 7.5 nmole/kg): 19198* mg*min/dL
Glucose AUC, MEAN ([3]; 22.5 nmole/kg): 15720* mg*min/dL
Glucose AUC, MEAN ([4]; 5 nmole/kg 16 hours before): 6287* mg*min/dL
Glucose AUC, MEAN ([4]; 15 nmole/kg 16 hours before): 6881* mg*min/dL
Insulin AUC, MEAN ([4]; 5 nmole/kg): 33.29* ng*min/mL
Insulin AUC, MEAN ([4]; 15 nmole/kg): 58.32* ng*min/mL
Glucose AUC, MEAN ([5]; 7.5 nmole/kg 16 hours before): 12103* mg*min/dL
Glucose AUC, MEAN ([5]; 15 nmole/kg 16 hours before): 14837* mg*min/dL
blood glucose in ob/ob mice ([5]; single injection): normalized blood glucose
Glucose AUC, MEAN [6]: 16944* mg*min/dL
